Each structure is given as a SMILES string.

Assay [1] concerns differentiated L6-myotubes. As to the kind of experiment: Glucose uptake screen (Biological example 1 of WO 2019/053427). Format: cell-based. The note with it: compound at 10 μM, activity relative to isoproterenol at 10 μM, read-out: Biological example 1 of WO 2019/053427 (GU). The gist of the method: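 Rat L6 myoblasts were differentiated into myotubes over 7 days in 2% FBS, then serum-starved overnight. Cells were stimulated with 1×10^−5 M compound plus β2 antagonist ICI-118551 for 1 h 40 min and re-dosed for 20 min in glucose-free medium. Uptake of 50 nM ^3H-2-deoxyglucose over 10 min was counted after NaOH lysis.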

The subject of assay [2] is differentiated L6-myotubes. The assay is described as follows: cAMP production relative to isoprenaline (Biological example 2 of WO 2019/053427). Format: cell-based. The following applies: 0.25 h, compound at 10 μM, activity relative to isoproterenol at 10 μM. The method in brief:
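Differentiated L6 myotubes stimulated 15 min with test compound or isoprenaline, each at final 1×10^−5 M, in HBSS with 1% BSA, 5 mM HEPES, 1 mM IBMX, pH 7.4. cAMP production by the compound expressed relative to that induced by the same concentration of isoprenaline.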
A general note: cAMP levels reflect the balance of adenylyl cyclase and phosphodiesterase activity.

As for `CS(=O)(=O)Nc1ccc(CC23CCC([C@@H](O)c4cccc(F)c4)(CC2)N3)cc1` [Compound 474, (S)-(m-fluorophenyl)(4-{[p-(mesylamino)phenyl]methyl}-7-azabicyclo[2.2.1]hept-1-yl)methanol], the values for the Emax at 10 µM in assay [1] and in assay [2] were 50 to 75% and less than 25%, respectively.

As to `CS(=O)(=O)Nc1ccc(CC23CCC([C@H](O)c4cccc(F)c4)(CC2)N3)cc1` [Compound 475, (R)-(m-fluorophenyl)(4-{[p-(mesylamino)phenyl]methyl}-7-azabicyclo[2.2.1]hept-1-yl)methanol], the figures for the Emax at 10 µM in assay [1] and in assay [2] were 50 to 75% and less than 25%, respectively.

Take `CNS(=O)(=O)[C@H]1CC[C@H](CC(C)(C)NC[C@H](O)c2cccc(F)c2)CC1` [Compound 476, (R)-2-{1,1-dimethyl-2-[(1r,4R)-4-(methylaminosulfonyl)cyclohexyl]ethylamino}-1-(m-fluorophenyl)-1-ethanol]: the Emax at 10 µM is more than 75% in assay [1] and 25 to 50% in assay [2].

Turning to `CNS(=O)(=O)[C@H]1CC[C@@H](CC(C)(C)NC[C@H](O)c2cccc(F)c2)CC1` [Compound 477, (R)-2-{1,1-dimethyl-2-[(1s,4S)-4-(methylaminosulfonyl)cyclohexyl]ethylamino}-1-(m-fluorophenyl)-1-ethanol], the Emax at 10 µM in assay [1] is 50 to 75%; in assay [2] it was less than 25%.

For `CNS(=O)(=O)[C@H]1CC[C@H](CC(C)(C)NC[C@H](O)c2cncc(F)c2)CC1` [Compound 478, (R)-2-{1,1-dimethyl-2-[(1r,4R)-4-(methylaminosulfonyl)cyclohexyl]ethylamino}-1-(5-fluoro-3-pyridyl)-1-ethanol], the Emax at 10 µM was 25 to 50% in assay [1] and less than 25% in assay [2].

For `CC(=O)N(Cc1ccccc1)[C@H]1CC[C@@H](C[C@@H]2CC[C@H]([C@H](O)c3cccc(F)c3)N2)CC1` [Compound 479, N-[(1R,4s)-4-({(2S,5R)-5-[(S)-(m-fluorophenyl)hydroxymethyl]-2-pyrrolidinyl}methyl)cyclohexyl]-N-benzylacetamide], the Emax at 10 µM in assay [1] and in assay [2] was less than 25% in each case.

Consider `CC(=O)N(Cc1ccccc1)[C@H]1CC[C@H](C[C@@H]2CC[C@H]([C@@H](O)c3cccc(F)c3)N2)CC1` [Compound 481, N-[(1S,4r)-4-({(2S,5R)-5-[(S)-(m-fluorophenyl)hydroxymethyl]-2-pyrrolidinyl}methyl)cyclohexyl]-N-benzylacetamide], for which the Emax at 10 µM in assay [1] and in assay [2] was less than 25% in each case.

On to `CC(=O)N(Cc1ccccc1)[C@H]1CC[C@H](C[C@@H]2CC[C@H]([C@H](O)c3cccc(F)c3)N2)CC1` [Compound 482, N-[(1S,4r)-4-({(2S,5R)-5-[(R)-(m-fluorophenyl)hydroxymethyl]-2-pyrrolidinyl}methyl)cyclohexyl]-N-benzylacetamide], for which the Emax at 10 µM in assay [1] and in assay [2] was less than 25% each time.

For `CC(=O)N[C@H]1CC[C@@H](C[C@@H]2CC[C@H]([C@@H](O)c3cccc(F)c3)N2)CC1` [Compound 483, N-[(1R,4s)-4-({(2S,5R)-5-[(S)-(m-fluorophenyl)hydroxymethyl]-2-pyrrolidinyl}methyl)cyclohexyl]acetamide], the Emax at 10 µM in assay [1] and in assay [2] was less than 25% each time.

Consider `CC(=O)N[C@H]1CC[C@@H](C[C@@H]2CC[C@H]([C@H](O)c3cccc(F)c3)N2)CC1` [Compound 484, N-[(1R,4s)-4-({(2S,5R)-5-[(R)-(m-fluorophenyl)hydroxymethyl]-2-pyrrolidinyl}methyl)cyclohexyl]acetamide], for which the Emax at 10 µM was 50 to 75% in assay [1] and less than 25% in assay [2].

As to `CC(=O)N[C@H]1CC[C@H](C[C@@H]2CC[C@H]([C@H](O)c3cccc(F)c3)N2)CC1` [Compound 485, N-[(1S,4r)-4-({(2S,5R)-5-[(R)-(m-fluorophenyl)hydroxymethyl]-2-pyrrolidinyl}methyl)cyclohexyl]acetamide], the Emax at 10 µM was 50 to 75% in assay [1] and less than 25% in assay [2].

Source of the values: patent US20260256751A1, “COMBINATION OF BETA-2-ADRENERGIC RECEPTOR AGONISTS AND GLP-1 RECEPTOR AGONISTS FOR USE IN TREATING HYPERGLYCAEMIA” (ATROGI AB, priority 2023, published 2026).
